Like-named read-outs stand apart in the source and are kept apart here.
Columns and labels:
[1] = tested on: Klebsiella pneumoniae (KPN) isolates; assay: MIC of compounds alone and combined with antibacterials, broth microdilution (CLSI); assay type: cell-based
Summary of the method: (§1)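 Log-phase isolates were inoculated at a final 5.10^5 CFU/mL in cation-adjusted Mueller-Hinton broth and incubated 16-20 h at 35° C in ambient air. MIC was the lowest concentration preventing visible growth; for combinations, the antibacterial MIC was read at each compound concentration.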

[2] = tested on: Escherichia coli (ECO) isolates; assay: as above; assay type: cell-based
Summary of the method: as §1

Structure (SMILES): CO/N=C(\C(=O)N[C@@H]1C(=O)N2C(C(=O)O)=C(COC(N)=O)CS[C@H]12)c1ccco1 [FUR, Cefuroxime]
- MIC ([1]; strain KPN 6299, genotype TEM-1, SHV-11, OXA-163): >512 µg/mL
- MIC ([1]; strain KPN 110376, genotype TEM-1, SHV-1, CTX-M-15, OXA-1, OXA-48): >256 µg/mL
- MIC ([1]; strain KPN 121206, genotype SHV-1, NDM-1): >256 µg/mL
- MIC ([1]; strain KPN 131119, genotype TEM-1, SHV-11, CTX-M-15, OXA-1, OXA-48): >256 µg/mL
- MIC ([1]; strain KPN 140513, genotype TEM-1, SHV-11, CTX-M-15, KPC-3): >256 µg/mL
- MIC ([1]; strain KPN 160143, genotype TEM-1, SHV-1, CTX-M-15, KPC-2, OXA-1): >256 µg/mL
- MIC ([1]; strain KPN 190128, genotype TEM-1, SHV-32, CTX-M-15, OXA-1): >256 µg/mL
- MIC ([1]; strain KPN 190270, genotype TEM-1, SHV-76, CTX-M-15, OXA-1): >256 µg/mL
- MIC ([1]; strain KPN 190425, genotype TEM-1, SHV-1, CTX-M-15, OXA-1): >256 µg/mL
- MIC ([1]; strain KPN 190551, genotype TEM-1, SHV-1, CTX-M-15, OXA-1): >256 µg/mL
- MIC ([1]; strain KPN 200047, genotype TEM-1, SHV-32, CTX-M-15, OXA-1): >256 µg/mL
- MIC ([1]; strain KPN 200327, genotype TEM-1, SHV-1, CTX-M-15, OXA-1): >256 µg/mL
- MIC ([1]; strain KPN 260251, genotype TEM-1, SHV-11, SHV-12, CTX-M-15, KPC-2): >256 µg/mL
- MIC ([1]; strain KPN 260252, genotype TEM-1, SHV-11, KPC-3): >256 µg/mL
- MIC ([1]; strain KPN 260376, genotype SHV-1, SHV-49, OXA-1): >256 µg/mL
- MIC ([1]; strain KPN 270077, genotype TEM-1, SHV-1, CTX-M-15): >256 µg/mL
- MIC ([1]; strain KPN 700603, genotype SHV-18, OXA-2): 32 µg/mL
- MIC ([1]; strain KPN ARA, genotype TEM-1, SHV-11, CTX-M-15, OXA-1, OXA-48): >256 µg/mL
- MIC ([1]; strain KPN BAA-1898, genotype TEM-1, SHV-11, SHV-12, KPC-2): >512 µg/mL
- MIC ([1]; strain KPN LIB, genotype SHV-11, OXA-48): 16 µg/mL
- MIC ([1]; strain KPN UFR22_O, genotype TEM-1, SHV-1, OXA-48): 32 µg/mL
- MIC ([1]; strain KPN UFR23, genotype TEM-1, SHV-1, OXA-48): 8 µg/mL
- MIC ([1]; strain KPN UFR24, genotype TEM-1, SHV-2, SHV-11, OXA-1, OXA-48, OXA-47): 128 µg/mL
- MIC ([1]; strain KPN UFR25, genotype TEM-1, SHV-11, CTX-M-15, OXA-162): >256 µg/mL
- MIC ([1]; strain KPN UFR27, genotype TEM-1, SHV-28, CTX-M-15, OXA-204): >256 µg/mL
- MIC ([1]; strain KPN UFR28, genotype TEM-1, SHV-1, CTX-M-15, OXA-1, OXA-232): >256 µg/mL
- MIC ([1]; strain KPN UFR42, genotype SHV-2, CTX-M-15 OXA-1, OXA-181, NDM-1): >256 µg/mL
- MIC ([1]; strain KPN UFR65, genotype TEM-1, SHV-11, KPC-2): >256 µg/mL
- MIC ([1]; strain KPN UFR66, genotype TEM-1, SHV-11, CTX-M-15, KPC-2): >256 µg/mL
- MIC ([1]; strain KPN UFR67, genotype TEM-1, SHV-11, KPC-3): >256 µg/mL
- MIC ([1]; strain KPN UFR68, genotype TEM-1, SHV-11, CTX-M-15, KPC-3): >256 µg/mL
- MIC ([1]; strain KPN UFR76, genotype TEM-155, SHV-11, ACT-1, OXA-2): >256 µg/mL
- MIC ([1]; strain KPN UFR77, genotype CMY-2): 64 µg/mL
- MIC ([1]; strain KPN UFR78, genotype TEM-1, SHV-1, CTX-M-15, CMY-2, OXA-1, OXA-48): >256 µg/mL
- MIC ([1]; strain KPN UFR79, genotype DHA-1, OXA-1): >256 µg/mL
- MIC ([1]; strain KPN UFR80, genotype SHV-11, DHA-1, OXA-1): 32 µg/mL
- MIC ([1]; strain KPN UFR81, genotype TEM-1, SHV-1, DHA-1, OXA-48): >256 µg/mL
- MIC ([1]; strain KPN UFR215, genotype SHV-27, CTX-M-15): >256 µg/mL
- MIC ([1]; strain KPN UFR216, genotype SHV-28, CTX-M-15): >256 µg/mL
- MIC ([1]; strain KPN UFR217, genotype TEM-1, SHV-1, CTX-M-15): >256 µg/mL
- MIC ([1]; strain KPN UFR219, genotype SHV-12, CTX-M-15): >256 µg/mL
- MIC ([1]; strain KPN UFR220, genotype TEM-1, SHV-12, DHA-1): >256 µg/mL
- MIC ([1]; strain KPN UFR221, genotype TEM-1, SHV-11, CTX-M-14, DHA-1): >256 µg/mL
- MIC ([1]; strain KPN UFR222, genotype DHA-2): >256 µg/mL
- MIC ([1]; strain KPN UFR227O, genotype TEM-x, SHV-x, CTX-M-x): >256 µg/mL
- MIC ([2]; strain ECO 4133, genotype TEM-30, OXA-1): 16 µg/mL
- MIC ([2]; strain ECO 5302, genotype TEM-1, OXA-1): 32 µg/mL
- MIC ([2]; strain ECO 131119, genotype TEM-1, OXA-48): 8 µg/mL
- MIC ([2]; strain ECO 180070, genotype TEM-1, CTX-M-15): >256 µg/mL
- MIC ([2]; strain ECO 190314, genotype CTX-M-1): >256 µg/mL
- MIC ([2]; strain ECO 190317, genotype TEM-1, SHV-12, CTX-M-15, OXA-1): >512 µg/mL
- MIC ([2]; strain ECO 190457, genotype CTX-M-15, OXA-1): >256 µg/mL
- MIC ([2]; strain ECO 190549, genotype CTX-M-1): >256 µg/mL
- MIC ([2]; strain ECO 200159, genotype TEM-1, CTX-M-14): >256 µg/mL
- MIC ([2]; strain ECO 200259, genotype CTX-M-14): >256 µg/mL
- MIC ([2]; strain ECO 200344, genotype CTX-M-1): >256 µg/mL
- MIC ([2]; strain ECO 260096, genotype CTX-M-132): >256 µg/mL
- MIC ([2]; strain ECO 260304, genotype CTX-M-15): >256 µg/mL
- MIC ([2]; strain ECO 260508, genotype TEM-1, CTX-M-15, OXA-1): >256 µg/mL
- MIC ([2]; strain ECO RGN238, genotype OXA-1): 16 µg/mL
- MIC ([2]; strain ECO UFR15, genotype TEM-1, OXA-48): 16 µg/mL
- MIC ([2]; strain ECO UFR16, genotype TEM-1, CTX-M-15, OXA-1, OXA-48): >256 µg/mL
- MIC ([2]; strain ECO UFR17, genotype TEM-1, CTX-M-15, CMY-2, OXA-1, OXA-181): >256 µg/mL
- MIC ([2]; strain ECO UFR18, genotype CTX-M-15, OXA-204): >256 µg/mL
- MIC ([2]; strain ECO UFR19, genotype CTX-M-15, CMY-2, OXA-1, OXA-204): >256 µg/mL
- MIC ([2]; strain ECO UFR20, genotype SHV-1, CTX-M-15, OXA-1, OXA-232): >256 µg/mL
- MIC ([2]; strain ECO UFR39, genotype CTX-M-15, NDM-1): >256 µg/mL
- MIC ([2]; strain ECO UFR61O, genotype TEM-1, KPC-2): >256 µg/mL
- MIC ([2]; strain ECO UFR62, genotype TEM-1, CTX-M-9, KPC-2): >256 µg/mL
- MIC ([2]; strain ECO UFR74, genotype SHV-1, DHA-1): >256 µg/mL
- MIC ([2]; strain ECO UFR86, genotype ompC-, ompF-): 64 µg/mL
- MIC ([2]; strain ECO UFR174, genotype TEM-1, KPC-2, OXA-1): >256 µg/mL
- MIC ([2]; strain ECO UFR175, genotype TEM-1, KPC-2, OXA-9): >256 µg/mL
- MIC ([2]; strain ECO UFR176, genotype KPC-3, OXA-9*): >256 µg/mL
- MIC ([2]; strain ECO UFR184, genotype CTX-M-15, CMY-4, OXA-1, OXA-204): >256 µg/mL
- MIC ([2]; strain ECO UFR185, genotype OXA-48): >256 µg/mL
- MIC ([2]; strain ECO UFR186, genotype TEM-1, CTX-M-14, OXA-48): >256 µg/mL
- MIC ([2]; strain ECO UFR187, genotype CTX-M-15, OXA-48): >256 µg/mL
- MIC ([2]; strain ECO UFR189, genotype TEM-1, CTX-M-15, OXA-48): >256 µg/mL
- MIC ([2]; strain ECO UFR190, genotype CTX-M-24, OXA-48): >256 µg/mL
- MIC ([2]; strain ECO UFR191, genotype TEM-1, CTX-M-24, OXA-48): >256 µg/mL
- MIC ([2]; strain ECO UFR207, genotype CTX-M-15): >256 µg/mL
- MIC ([2]; strain ECO UFR208, genotype SHV-12): >256 µg/mL
- MIC ([2]; strain ECO UFR209, genotype TEM-1, CTX-M-15): >256 µg/mL
- MIC ([2]; strain ECO UFR210, genotype SHV-12): >256 µg/mL
- MIC ([2]; strain ECO UFR211, genotype TEM-24): 64 µg/mL
- MIC ([2]; strain ECO UFR212, genotype CMY-2): >256 µg/mL
- MIC ([2]; strain ECO UFR218, genotype TEM-1, SHV-1, CTX-M-15): >256 µg/mL

Structure (SMILES): COCC1=C(C(=O)O)N2C(=O)[C@@H](NC(=O)/C(=N\OC)c3csc(N)n3)[C@H]2SC1 [POD, Cefpodoxime]
- MIC ([1]; Klebsiella pneumoniae, BAA1898, strain KPN BAA-1898, genotype TEM-1, SHV-11, SHV-12, KPC-2, read-out: MIC): > 512 µg/mL
- MIC ([1]; Klebsiella pneumoniae, strain KPN 6299, genotype TEM-1, SHV-11, OXA-163, read-out: MIC): 64 µg/mL
- MIC ([1]; Klebsiella pneumoniae, strain KPN 700603, genotype SHV-18, OXA-2, read-out: MIC): 16 µg/mL
- MIC ([1]; Klebsiella pneumoniae, strain KPN LIB, genotype SHV-11, OXA-48, read-out: MIC): 1 µg/mL
- MIC ([1]; Klebsiella pneumoniae, strain KPN UFR22_O, genotype TEM-1, SHV-1, OXA-48, read-out: MIC): 1 µg/mL
- MIC ([1]; Klebsiella pneumoniae, strain KPN UFR23, genotype TEM-1, SHV-1, OXA-48, read-out: MIC): 0.5 µg/mL
- MIC ([1]; Klebsiella pneumoniae, strain KPN UFR77, genotype CMY-2, read-out: MIC): 64 µg/mL
- MIC ([1]; Klebsiella pneumoniae, strain KPN UFR79, genotype DHA-1, OXA-1, read-out: MIC): 32 µg/mL
- MIC ([1]; Klebsiella pneumoniae, strain KPN UFR80, genotype SHV-11, DHA-1, OXA-1, read-out: MIC): 2 µg/mL
- MIC ([2]; Escherichia coli, strain ECO 4133, genotype TEM-30, OXA-1, read-out: MIC): 2 µg/mL
- MIC ([2]; Escherichia coli, strain ECO 5302, genotype TEM-1, OXA-1, read-out: MIC): 4 µg/mL
- MIC ([2]; Escherichia coli, strain ECO 131119, genotype TEM-1, OXA-48, read-out: MIC): 1 µg/mL
- MIC ([2]; Escherichia coli, strain ECO 190317, genotype TEM-1, SHV-12, CTX-M-15, OXA-1, read-out: MIC): > 512 µg/mL
- MIC ([2]; Escherichia coli, strain ECO RGN238, genotype OXA-1, read-out: MIC): 2 µg/mL
- MIC ([2]; Escherichia coli, strain ECO UFR15, genotype TEM-1, OXA-48, read-out: MIC): 2 µg/mL
- MIC ([2]; Escherichia coli, strain ECO UFR86, genotype ompC-, ompF-, read-out: MIC): 4 µg/mL
- MIC ([2]; Escherichia coli, strain ECO UFR211, genotype TEM-24, read-out: MIC): 32 µg/mL

Source: patent US20200017495A1, “NOVEL HETEROCYCLIC COMPOUNDS AND THEIR USE IN PREVENTING OR TREATING BACTERIAL INFECTIONS” (priority 2017, published 2020)
